Measured values reported in patent publication US12138300B2, “Methods and compositions for inducing neural plasticity” (CASE WESTERN RESERVE UNIVERSITY, priority 2018, dated 2024).

Legend:
[1] = system: WT primary NSCs; experiment: Neural stem cell differentiation assay, neurite outgrowth (MAP2 immunostaining); type: cell-based, mouse; settings: 2.5 μM peptide, differentiated in vitro for 5 days
Method: Briefly, glass coverslips in an untreated 24-well plate were coated with poly-ornithine and laminin After splitting neurospheres during passaging, individual cells were plated at a density of 10^4 cells/cm^2 in 500 μl of NBM-GF. Every other day, 250 μl of media was removed from each well and 300 μl of fresh NBM-GF was added. When the attached cell reached approximately 70% confluency (around day 5), all NBM-GF within each well was gently removed and immediately replaced with neurobasal media without growth factor (NBM) with ISP peptide (2.5 μM) or scramble peptide (2.5 μM). Each well was fed daily by removing 250 μl of the media and adding 300 μl of the media containing ISP or scramble peptide. On Day 5 after complete replacement of the NBM-GF, the wells were fixed with 4% paraformaldehyde for 15 min at room temperature and stored in phosphate-buffered saline at 4° C. until staining.
Cells cultured on coverslip were fixed in 4% PFA for 15 min, permeabilized in 0.1% Triton-X100 for 10 min and then incubated in 10% normal goat serum for 1 hour. […] Three coverslips were analyzed per condition. Random selections of field in each coverslip were chosen and imaged by Stereo Investigator Software (MBF Bioscience, Williston, VT, USA), and quantitative data was obtained by using NIH ImageJ software.

[2] = system: stroke mice; experiment: Survival of stroke mice after tMCAO with post-stroke treatment; type: in vivo, mouse
Method: First, the efficacy of post-stroke ISP treatment in the C57BL/6 mouse was tested using a proximal middle cerebral artery occlusion (pMCAO) model. Three cohorts of mice (n=59) were subjected to MCAO surgery to induce a large stroke in both striatal and cortical tissue, mimicking a human “malignant” stroke, which tends to be fatal in humans. Stroke mice were subjected to T2 weighted MRI scanning to determine the size of the stroke injury and were grouped blindly into two equally distributed groups that received either daily vehicle (5% DMSO) or daily ISP (20 μg/mouse/day or 30 μg/mouse/day S.C. injections) treatment starting from 24 hours after stroke onset for 6 weeks.
Transient middle cerebra artery occlusion (tMCAO) was induced in male C57BL/6 mice (12 weeks old, 25-30 g) by intraluminal occlusion of the left MCA for 45 min with silicone rubber-coated monofilament (Cat. 602212PK10Re and 602312PK10Re, Doccol Corporation). Briefly, mice were anesthetized with isoflurance. Body temperature was monitored and maintained at 37±0.5° C. by homeothermic blanket control unit (Harvard apparatus). To minimize animal's pain, mice were subcutaneously injected with buprenorphine. […] To ensure consistent and successful blockage of MCA, regional cerebral blood flow was monitored in all stroke animals by Laser Doppler flowmetry (PeriFlux system 5000, Perimed, Sweden). […]

[3] = system: stroke mice; experiment: Computer automated open field locomotion analysis in stroke mice; type: in vivo, mouse
Method: First, the efficacy of post-stroke ISP treatment in the C57BL/6 mouse was tested using a proximal middle cerebral artery occlusion (pMCAO) model. Three cohorts of mice (n=59) were subjected to MCAO surgery to induce a large stroke in both striatal and cortical tissue, mimicking a human “malignant” stroke, which tends to be fatal in humans. […]
To test the timing of ISP administration relative to the time of injury, and the corresponding effect on recovery, adult C57bl/6J female and male mice were subjected to transient proximal MCAO surgery (35 min) as described above. […]
Mice motor activities were assessed using Accuscan activity monitor (Columbus, OH, USA) one day before and 3, 7, 14, 21, 35 and 42 days after tMCAO as previously described. […] To avoid observer bias, this locomotor test was automatically monitored by the computer and software. Locomotor activity was calculated by automated Versamax software (Accuscan, Columbus, OH, USA). The following variables were measured: (A) horizontal activity (the total number of beam interruptions that occurred in the horizontal sensors); (B) total distance traveled (cm, the distance traveled by the animals); (C) Vertical activity (the total number of beam interruptions that occurred in vertical sensors).

[4] = system: stroke mice; experiment: Adhesive removal test (sensorimotor function) in stroke mice; type: in vivo, mouse; settings: post-stroke treatment
Method: This test was performed on days 7, 14, 21, 28, 35 and 42 post-stroke in order to examine the sensorimotor deficits. Each mice was placed into transparent cylinder (15 cm diameter) during a habituation period of 1 min Thereafter, two different colored adhesive labels (2.5 mm diameter made by punch, Tough Spots) were applied with equal pressure on each mouse's forepaw. The times required to remove the adhesive labels were measured with a maximum of 2 min. To achieve an optimum level of performance, mice should be trained for 4 days before surgery.

[5] = system: stroke mice; experiment: Barnes maze test (cognitive function) in stroke mice; type: in vivo, mouse; settings: 4 weeks after stroke; vs vehicle
Excerpt: The spatial memory of ischemic mice was examined using Barnes maze (Stoelting Company, WoodDale, IL, USA) 28 days after tMCAO. The maze consists of a 91.5 cm diameter circular platform with 20 holes around the perimeter. Mice were discouraged to idle around aimlessly by blowing fans and a bright light above the platform. At day 0, mice were gently guided to enter the target hole after removing the start chamber. At day 1, mice were trained for 4 trials in 2 sessions to find the escape tunnel placed under the target hole. Once mice entered the target hole, the hole was covered and mice were allowed to stay in it for 2 min. If mice could not locate the target hole within 5 min, mice were guided by the observer to enter the target hole. At day 2, one trial was run and video-taped until the mouse getting into the target hole or stopped at 5 mins when the mouse could not locate the target hole. Time spent to locate the escaping hole and error numbers in finding the hiding hole made by the mouse were measured by an observer in a blinded fashion.

[6] = system: stroke mice; experiment: Quantification of brain atrophy in stroke animals; type: in vivo, mouse; settings: post-stroke 6-week brain sections
Method: The post-stroke 6-week brain sections (25 μm) were mounted on PLL-coated slides. The sections were rehydrated in KH2PO4 buffer (pH 4.5) for 10 min, and then stained in pre-warm 10% Giemsa solution for 30 min at 42° C. After a brief rinse with KH2PO4 buffer, sections were dehydrated in absolute ethanol, cleared in xylene and mounted with Histoseal. A set of serial sections was imaged by Path Scan Enabler IV slide scanner. Contralateral and ipsilateral brain areas were quantified using ImageJ software. The calculation formula of atrophy rate is as follows: Σ (contralateral brain area−ipsilateral brain area)/Σ contralateral brain area×100%.

[7] = system: stroke mice; experiment: DCX+ neuroblast formation in post-stroke mice; type: in vivo, mouse; settings: post-stroke treatment; vs vehicle
[8] = system: stroke mice; experiment: Anterograde BDA tracing and quantification of corticospinal tract axonal sprouting; type: in vivo, mouse; settings: post-stroke treatment; crossed CST fibers at cervical spinal cord, BDA tracing
Method: Four weeks after tMCAO, mice were anesthetized with 1.5% isoflurane/oxygen mixture and stabilized in a stereotaxic frame. 1.5 μl of the biotin dextran amine (BDA, MW10,000; 10% in PBS, invitrogen) were injected at three sites in the contralesional cortex (coordinates: 1. A/P 0.0 mm, M/L −2 mm, D/V −1 mm; 2.A/P 0.5 mm, M/L-1.5 mm, D/V-1 mm; 3. A/P 0.5 mm, M/L −2 mm, D/V −1 mm) Two weeks later, brain and cervical spinal cord were harvested after cardiac perfusion with PBS followed by 4% paraformaldehyde. After post-fix overnight in 4% paraformaldehyde and cryoprotection in 20% and 30% sucrose, coronal brain sections and transverse spinal cord sections were cut at 30 μm thickness. For the detection of BDA, sections were rinsed in 0.1M PB and incubated in 0.3% H2O2 for 30 min to inactivate endogenous peroxidase, followed by incubation for 2 hours with a Vectastain® ABC kit (Vector Laboratories, Burlingame, CA, USA). Staining was developed with 2,3′ diaminobenziine tetrahydrochloride (0.5 mg/ml in 0.1M PB). The number and length of midline-cross BDA+ fiber were assessed in a blinded manner Sections were analyzed with ImageJ software.

[9] = system: adult NSCs; experiment: Migration of neural stem cells on CSPGs (aggrecan coating); type: cell-based, mouse; settings: 2.5 μM peptide, 21 hours, with or without aggrecan coating
Excerpt: Primary stem cells were obtained from C57BL/6J mice at 5 weeks of age. After euthanization, whole brains were immediately harvested and dissected under microscope to obtain the subventricular zone (SVZ) tissue. After mechanical dissociation with a stab knife, the tissue fragment were processed using trypsin and resuspended as individual cells at a density of 10^4 cell/cm^2 in neurobasal media with growth factors (epidermal growth factor and basic fibroblast growth factor) (NBM-GF). Subsequent passaging of cells were performed using Accutase® (innovative #AT-104, CA, USA) every 7 days until the cells established viable lines, and cellular debris was naturally diminished after each passage. At day 4 of each passage, the proliferating spheres were fed with NBM-GF. We used neurospheres at passage P3-P8 in this study.
To determine the effects of CSPGs on the migration of neural stem cells in vitro, flat-bottom 48-well plates were first coated with poly-L-lysine overnight, followed by a rinsing with water. Aggrecan (A1960, sigma) were coated onto the 48-well plates at the concentration of 1 ug/ml and 10 ug/ml diluted in sterile water overnight, followed by a rinsing with water. The control wells contained poly-L-lysine alone. […] The inner area and total area of neurospheres were measured by ImageJ software. […]

Sequence	neurite outgrowth (neurite length) in differentiated NSCs [1]	survival of stroke animals over time ([2]; continuous post-stroke treatment started 24 hours post-stroke, tMCAO mice, vehicle 44.828%) [%]	survival rate of stroke animals ([2]; treatment initiated at 24 hours post stroke, daily S.C., vs vehicle)	locomotor function (total distance travelled, total horizontal activity, total vertical activity) ([3]; treatment from 24 h post-stroke, 2-4 weeks after stroke, vs vehicle)	open field locomotion performance (total distance, horizontal activity, vertical activity), delayed treatment ([3]; treatment initiated 7 days post stroke, 1 mg/kg/day for 3 weeks, by week four)	speed of tape removal, affected limb ([4]; affected front paw, vs vehicle)	tape removal, unaffected limb ([4]; unaffected front paw)	error trials to find the escape hole in the Barnes maze [5]	time to find the escape hole in the Barnes maze [5]	chronic atrophy of brain after stroke [6]	DCX+ neuroblasts near the lateral ventricle and adjacent striatal tissues [7]	axonal sprouting from contralateral corticospinal tract [8]	migration of adult NSCs (normalized migration index) [9]
GRKKRRQRRRCIREDDSLMLYALAQEKKESNMHES [scrambled ISP peptide, reference compound]	no effects	–	–	–	–	–	–	–	–	–	–	–	–
GRKKRRQRRRCDMAEHMERLKANDSLKLSQEYESI [ISP]	consistently increased neurite outgrowth	67.742	improve the survival rate of stroke animals significantly	significantly increased	significant effects in improved performance	significantly improved the speed	without any obvious effects	less error trials	significantly less time	decreases the chronic atrophy of brain	enhanced	enhanced	alleviates the inhibition of CSPGs on NSCs migration
